Values joined by “and” are separate entries in the source; they are usually repeats but may differ in a detail not shown here. Equal entries are not always repeated. Where two headings read alike, the source gives them in different places.
How the values were obtained:
[1] = test system: P. falciparum (D6, Dd2, Tm90.C2B); experiment: In vitro activity and pharmaco-resistance pattern against a panel of P. falciparum parasites; format: cell-based, Plasmodium falciparum; details: for reduction of potency relative to ELQ-121: in vitro, relative to the 5,7-difluoro parent ELQ-121; for cross-resistance / sensitivity pattern across strains: atovaquone-resistant Tm90.C2B compared with D6 and Dd2, in words; for antiplasmodial activity in vitro (in words): structure-activity comparison with endochin
Description: (§1) Plasmodium falciparum strains D6 and Dd2 were obtained from the MR4 (ATCC, Manassas, Va., USA). D6 is sensitive to chloroquine but mildly resistant to mefloquine while Dd2 is resistant to multiple quinoline and antifolate antimalarial agents. Tm90.C2B is resistant to atovaquone, chloroquine, mefloquine, and quinine.
(§2) Three different laboratory strains of P. falciparum were cultured in human erythrocytes by standard methods under a low oxygen atmosphere (5% O2, 5% CO2, 90% N2) in an environmental chamber as described in Trager, W., and J. B. Jensen. 1976. Human malaria parasites in continuous culture. Science 193:673-5. The culture medium was RPMI-1640, supplemented with 25 mM HEPES buffer, 25 mg/L gentamicin sulfate, 45 mg/L hypoxanthine, 10 mM glucose, 2 mM glutamine, and 0.5% Albumax II (complete medium). The parasites were maintained in fresh human erythrocytes suspended at a 2% hematocrit in complete medium at 37° C. Stock cultures were sub-passaged every 3 to 4 days by transfer of infected red cells to a flask containing complete medium and uninfected erythrocytes.
(§3) In vitro antimalarial activity of the compounds was assessed by the SYBR Green I fluorescence-based method (the “MSF assay”) described previously by Smilkstein, M., N. Sriwilaijaroen, J. X. Kelly, P. Wilairat, and M. Riscoe. 2004. Simple and inexpensive fluorescence-based technique for high-throughput antimalarial drug screening. Antimicrob Agents Chemother 48:1803-6 with minor modifications (Winter, R. W., J. X. Kelly, M. J. Smilkstein, R. Dodean, G. C. Bagby, R. K. Rathbun, J. I. Levin, D. Hinrichs, and M. K. Riscoe. 2006. Evaluation and lead optimization of anti-malarial acridones. Exp Parasitol 114:47-56). Experiments were set up in triplicate in 96 well plates (Costar, Corning) with two-fold dilutions of each drug across the plate in a total volume of 100 microliters and at a final red blood cell concentration of 2% (v/v). Stock solutions of each drug were prepared by dissolving in ethanol or dimethylsulfoxide (as appropriate) at 10 mM. […] Automated pipeting and dilution was carried out with the aid of a programmable Precision 2000 robotic station (BioTek, Winooski, Vt.). An initial parasitemia of 0.2% was attained by addition of normal uninfected red cells to a stock culture of asynchronous parasite infected red cells (PRBC). The plates were incubated for 72 hrs at 37° C. in an atmosphere of 5% CO2, 5% O2, and 90% N2. After this period the SYBR Green I dye-detergent mixture (100 μl) was added and the plates were incubated at room temperature for an hour in the dark and then placed in a 96-well fluorescence plate reader (Spectramax Gemini-EM, […]) for analysis with excitation and emission wavelength bands centered at 497 and 520 nm, respectively.
(§4) The compounds were screened for antiplasmodial activity in vitro against chloroquine (CQ) sensitive (D6), multidrug resistant (Dd2), and chloroquine/quinine/atovaquone (ATV)-resistant (Tm90.C2B) strains of P. falciparum.

[2] = test system: Plasmodium falciparum strain D6; experiment: SYBR Green I fluorescence-based MSF assay, in vitro antimalarial activity, strain D6; format: cell-based; details: chloroquine sensitive strain D6, 72 hrs incubation
Description: as §1, §2, §3, §4

[3] = test system: Plasmodium falciparum strain Tm90.C2B; format: cell-based
Description: as §1, §2
In vitro antimalarial activity of the compounds was assessed by the SYBR Green I fluorescence-based method (the “MSF assay”) described previously by Smilkstein, M., N. Sriwilaijaroen, J. X. Kelly, P. Wilairat, and M. Riscoe. 2004. Simple and inexpensive fluorescence-based technique for high-throughput antimalarial drug screening. Antimicrob Agents Chemother 48:1803-6 with minor modifications (Winter, R. W., J. X. Kelly, M. J. Smilkstein, R. Dodean, G. C. Bagby, R. K. Rathbun, J. I. Levin, D. Hinrichs, and M. K. Riscoe. 2006. Evaluation and lead optimization of anti-malarial acridones. Exp Parasitol 114:47-56). […] After this period the SYBR Green I dye-detergent mixture (100 μl) was added and the plates were incubated at room temperature for an hour in the dark and then placed in a 96-well fluorescence plate reader (Spectramax Gemini-EM, […]) for analysis with excitation and emission wavelength bands centered at 497 and 520 nm, respectively. […]

P. cathemerium = details: P. cathemerium/canary; cited from earlier work
P. gallinaceum = P. gallinaceum in the chick; cited from earlier work
P. lophurae = P. lophurae in the turkey; cited from earlier work
Haemoproteus = details: male gametocytes undergoing exflagellation, finches infected with Haemoproteus; cited from earlier work
malaria infections = details: mice to non-human primates (Rhesus monkeys); cited from earlier work
[4] = test system: Plasmodium falciparum strain Dd2; experiment: SYBR Green I fluorescence-based MSF assay, in vitro antimalarial activity, strain Dd2; format: cell-based; details: multidrug resistant strain Dd2, 72 hrs incubation
Description: as §1
Three different laboratory strains of P. falciparum were cultured in human erythrocytes by standard methods under a low oxygen atmosphere (5% O2, 5% CO2, 90% N2) in an environmental chamber as described in Trager, W., and J. B. Jensen. 1976. Human malaria parasites in continuous culture. Science 193:673-5. […]
In vitro antimalarial activity of the compounds was assessed by the SYBR Green I fluorescence-based method (the “MSF assay”) described previously by Smilkstein, M., N. Sriwilaijaroen, J. X. Kelly, P. Wilairat, and M. Riscoe. […] Simple and inexpensive fluorescence-based technique for high-throughput antimalarial drug screening. […] After this period the SYBR Green I dye-detergent mixture (100 μl) was added and the plates were incubated at room temperature for an hour in the dark and then placed in a 96-well fluorescence plate reader (Spectramax Gemini-EM, […]) for analysis with excitation and emission wavelength bands centered at 497 and 520 nm, respectively. […]

P. yoelii = format: in vivo
Description: The activity of the ester, ELQ-125, against the blood stages was assessed using a modified Thompson procedure (Arba Ager, 1984). Rodent malaria models, vol. 68/1. Springer-Verlag, Berlin. Mice (female, CFI) were infected intravenously with 1-5 million P. yoelii parasitized erythrocytes from a donor animal. Drug administration was initiated once the parasitemia had risen to between 3 to 5% as determined microscopically by examination of Giemsa-stained blood smears. The test compound, ELQ-125, was taken into NeoBee® M-5 (Stephan Company, Northfield, Ill., USA) and used without dilution. The drug was administered by gavage once daily for 3 days. On the 4th day blood films were prepared and the extent of parasitemia was determined microscopically. ED50 and ED90 values (mg/kg/day) were derived from the dose required to reduce the parasite burden by 50% and 90%, respectively, relative to drug-free controls. The procedures involved, together with all matters relating to the care and housing of the animals used in this study, were approved by the Portland VA Medical Center Institutional Animal Care and Use Committee (approval #0807).
Prodrugs containing a water-soluble pro-moiety that could be metabolically released after drug administration were designed and synthesized. […] In each case, ELQ-125, a clear and colorless syrup, was administered orally with NeoBee M-5 (vol.=100 μl).

[5] = test system: Toxoplasma gondii strain 2F; experiment: Anti-T. gondii assay with beta-galactosidase expressing 2F strain in HFF cells; format: cell-based; details: compared with the correlation observed for Plasmodium falciparum
Description: Determination of anti-T. gondii IC50 and TD50 values—use of the 2F strain. This method, which employs tachyzoites of Toxoplasma gondii strain 2F that constitutively expresses cytoplasmic Beta-galactosidase, has been described recently by Jones-Brando et al. (Jones-Brando, L., D'angelo, J., Posner, G H, and Yolken, R., 2006, In vitro inhibition of Toxoplasma gondii by four new derivatives of artemisinin, Antimicrobial Agents and Chemotherapy 50: 4206-8). […] Briefly, each drug was dissolved in ethanol or DMSO, as appropriate, at a concentration of 10 mM and diluted with complete Dulbecco's modified Eagle's medium (DMEM) to 1,000 μM. […] After this period, Triton X-100 is added to inactivate the parasite and the color reactions in the wells were read in a microplate reader. For anti-T. gondii IC50 determinations, the plates are read at 570-650 nm. The amount of absorbance (570-650 nm) in wells containing drug, parasites, and CPRG reagent is compared to that in control wells containing T. gondii, HFF cells and CPRG. The amount of absorbance in these wells is directly proportional to the amount of beta-galactosidase activity and thus correlative to the number of viable tachyzoites in each well. Thus, a decrease in the amount of absorbance indicates an inhibition of parasite growth. […]

[6] = chloroquine/quinine/atovaquone-resistant Tm90.C2B clinical isolate, 72 hrs incubation

CCCCCCCc1c(C)[nH]c2c(F)cc(F)cc2c1=O [6,8-difluoro positional isomer]
reduction of potency relative to ELQ-121 [1]: ≈ 2,000 fold

CCCCCCCc1c(C)[nH]c2cc(OC)ccc2c1=O [ELQ-100, endochin]
IC50 [2]: 3 to 4 nM and 3.8 nM | IC50 [3, 6]: 11.4 nM | cross-resistance / sensitivity pattern across strains [1]: a modest level of ATV cross-resistance | efficacy in bird model (P. cathemerium): efficacy in treatment and prevention of malaria | efficacy in treatment and prophylaxis (P. gallinaceum): demonstrated efficacy in treatment and prophylaxis | efficacy in treatment and prophylaxis (P. lophurae): demonstrated efficacy in treatment and prophylaxis | gametocidal action (Haemoproteus): exerted gametocidal action | cure of malaria infections in mammalian species (malaria infections): failed to cure malaria infections

COc1ccc2c(=O)c(CCCCCCCCCCC(F)(F)F)c(C)[nH]c2c1 [ELQ-103]
IC50 vs. D6 [2]: low nanomolar range | IC50 vs. Dd2 [4]: low nanomolar range | IC50 vs. Tm90.C2B [3, 6]: low nanomolar range

CCCCCCCc1c(O)[nH]c2cc(OC)ccc2c1=O [ELQ-106]
IC50 [2]: > 2500 nM

CCCCCCCc1c(C)[nH]c2cc(Cl)ccc2c1=O [ELQ-109]
IC50 [2]: 5.8 nM | antiplasmodial activity in vitro (in words) [1]: only a modest reduction in in vitro potency

CCCCCCCc1c(C)[nH]c2cc(O)ccc2c1=O [ELQ-117]
antiplasmodial activity in vitro (in words) [1]: greatly diminishes antiplasmodial activity

CCCCCCCc1c(C)nc2cc(F)cc(F)c2c1Cl [ELQ-119]
reduction of potency relative to ELQ-121 [1]: > 1,000 fold

CCCCCCCc1c(C)[nH]c2cc(F)ccc2c1=O [ELQ-120]
antiplasmodial activity in vitro (in words) [1]: only a modest reduction in in vitro potency

CCCCCCCc1c(C)[nH]c2cc(F)cc(F)c2c1=O [ELQ-121, 2-Methyl-3-(n-heptyl)-5.7-difluorquinolone]
IC50 [2]: ~0.05 nM | IC50 [4]: ~0.05 nM | IC50 against Tm90.C2B relative to D6 and Dd2 ([3]; times higher than IC50 against D6 and Dd2): about 300 times

CCCCCCCc1c(C)[nH]c2cc(Cl)cc(Cl)c2c1=O [ELQ-124]
antiplasmodial activity in vitro (in words) [1]: weak in vitro activity

CCCCCCCc1c(C)nc2cc(F)cc(F)c2c1OC(=O)OCCOCCOCCOCCOC [ELQ-125]
parasitemia suppressed relative to controls (P. yoelii; 25 mg/kg/day oral, 3 days, assessed on the day following the last dose): > 99% | parasite status during follow-up (P. yoelii; 25 mg/kg/day oral, 3 days, until euthanized 10 days later): remained parasite-free | clearance of parasites from the bloodstream (P. yoelii; 50 mg/kg/day oral in NeoBee M-5, once daily for 3 days, mice): completely cleared parasites from the bloodstream | clearance of parasites from the bloodstream (P. yoelii; 100 mg/kg/day oral in NeoBee M-5, once daily for 3 days, mice): completely cleared parasites from the bloodstream | ED90 (P. yoelii; oral in 100 μl NeoBee M5, once daily for 3 days, mice): 22 mg/kg/day | in vivo efficacy of the prodrug (in words) (P. yoelii; prodrug ester compared with ELQ-121): greatly enhanced in vivo efficacy

CCCCCCCc1c(C)[nH]c2ccccc2c1=O [ELQ-127]
cross-resistance / sensitivity pattern across strains [1]: equally active against all three parasite strains | in vitro activity weakened relative to endochin ([1]; relative to endochin): roughly 5 fold

CCCCCCCc1c(C)[nH]c2ccc(Cl)cc2c1=O [ELQ-130]
IC50 [2]: 22.2 nM | cross-resistance / sensitivity pattern across strains [1]: equal sensitivity is observed against the atovaquone-resistant Tm90.C2B clinical isolate

CCCCCCCc1c(C)n(C)c2cc(F)cc(F)c2c1=O [ELQ-134]
reduction of potency relative to ELQ-121 [1]: about 300 fold | growth inhibitory activity against Toxoplasma gondii (in words) [5]: enhanced growth inhibitory activity
